# Experiments:
# Type in all cases: in vivo
# [1] = test system: Abutilon theophrasti (ABUTH); test: Pre-emergence herbicidal action against ABUTH; settings: Dosage column 320 g/ha (title prints 3200 g/ha); scored visually after about 3 weeks; 100% = plants have died
# Method in brief: (§1)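 Greenhouse pot trial: seeds sown, soil-covered, sprayed before emergence with compound in water (0.5% additive; 600 l/ha; ≤320 g/ha). Scoring visual, ~3 weeks, 0–100% scale vs untreated.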
# [2] = test system: Alopecurus myosuroides (ALOMY); test: Pre-emergence herbicidal action against ALOMY; settings: scored visually after about 3 weeks, 100% = plants have died
# Method in brief: as §1
# [3] = test system: Amaranthus retroflexus (AMARE); test: Pre-emergence herbicidal action against AMARE; settings: visual scoring after about 3 weeks vs untreated controls
# Method in brief: as §1
# Avena fatua (AVEFA) [4] = test: Pre-emergence herbicidal action against AVEFA; settings: 320 g/ha, visual scoring after about 3 weeks vs untreated controls
# Method in brief: as §1
# [5] = test system: Digitaria sanguinalis (DIGSA); test: Pre-emergence herbicidal action against DIGSA
# Method in brief: as §1
# [6] = test system: Echinochloa crus-galli (ECHCG); test: Pre-emergence herbicidal action against ECHCG
# Method in brief: as §1
# Lolium rigidum (LOLRI) [7] = test: Pre-emergence herbicidal action against LOLRI
# Method in brief: as §1
# [8] = test system: Matricaria inodora (MATIN); test: Pre-emergence herbicidal action against MATIN
# Method in brief: as §1
# [9] = test system: Pharbitis purpurea (PHBPU); test: Pre-emergence herbicidal action against PHBPU
# Method in brief: as §1
# [10] = test system: Polygonum convolvulus (POLCO); test: Pre-emergence herbicidal action against POLCO
# Method in brief: as §1
# Setaria viridis (SETVI) [11] = test: Pre-emergence herbicidal action against SETVI
# Method in brief: as §1
# [12] = test system: Verconica persica (VERPE); test: Pre-emergence herbicidal action against VERPE
# Method in brief: as §1
# Viola tricolor (VIOTR) [13] = test: Pre-emergence herbicidal action against VIOTR
# Method in brief: as §1
# [14] = test system: Abutilon theophrasti (ABUTH); test: Post-emergence herbicidal action against ABUTH; settings: visual rating about 3 weeks after treatment vs untreated controls (100% = plants have died, 0% = like control plants)
# Method in brief: (§2)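 Rates were 320 g/ha or below, applied as aqueous WP/EC spray with 0.5% additive (600 l/ha) onto one-leaf-stage plants. About 3 weeks later in the greenhouse, damage was scored visually against untreated plants on a 0–100% scale, where 100% means plants died.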
# [15] = test system: Alopecurus myosuroides (ALOMY); test: Post-emergence herbicidal action against ALOMY; settings: visual rating about 3 weeks after treatment vs untreated controls (100% = plants have died, 0% = like control plants)
# Method in brief: as §2
# Avena fatua (AVEFA) [16] = test: Post-emergence herbicidal action against AVEFA; settings: visual rating about 3 weeks after treatment
# Method in brief: as §2
# [17] = test system: Digitaria sanguinalis (DIGSA); test: Post-emergence herbicidal action against DIGSA; settings: visual rating about 3 weeks after treatment
# Method in brief: as §2
# [18] = test system: Echinochloa crus-galli (ECHCG); test: Post-emergence herbicidal action against ECHCG
# Method in brief: as §2
# Lolium rigidum (LOLRI) [19] = test: Post-emergence herbicidal action against LOLRI
# Method in brief: as §2
# [20] = test system: Pharbitis purpurea (PHBPU); test: Post-emergence herbicidal action against PHBPU
# Method in brief: as §2
# [21] = test system: Polygonum convolvulus (POLCO); test: Post-emergence herbicidal action against POLCO; settings: dosage 320 g/ha
# Method in brief: as §2
# Setaria viridis (SETVI) [22] = test: Post-emergence herbicidal action against SETVI
# Method in brief: as §2
# [23] = test system: Verconica persica (VERPE); test: Post-emergence herbicidal action against VERPE
# Method in brief: as §2
# Viola tricolor (VIOTR) [24] = test: Post-emergence herbicidal action against VIOTR
# Method in brief: as §2
# [25] = test system: Amaranthus retroflexus (AMARE); test: Post-emergence herbicidal action against AMARE
# Method in brief: as §2
# [26] = 80 g/ha, visual scoring after about 3 weeks vs untreated controls
structure (smiles),measurement,setting,value
COC(=O)[C@H](C)COC(=O)COc1nn(-c2ccccn2)c(-c2cncc(F)c2)c1Br [Example I-195],Pre-emergence action against ABUTH,[1],80%
same,Pre-emergence action against ALOMY,[2]; 80 g/ha,80%
same,Pre-emergence action against ALOMY,[2]; 320 g/ha,90%
same,Pre-emergence action against AMARE in %,[3]; 80 g/ha,90%
same,Pre-emergence action against AMARE in %,[3]; 320 g/ha,100%
same,Pre-emergence action against AVEFA in %,Avena fatua (AVEFA) [4],90%
same,Pre-emergence action against DIGSA in %,[5]; [26],90%
same,Pre-emergence action against DIGSA in %,[5]; dosage 320 g/ha,100%
same,Pre-emergence action against ECHCG in %,[6]; dosage 320 g/ha,100%
same,Pre-emergence action against LOLRI in %,Lolium rigidum (LOLRI) [7]; dosage 80 g/ha,80%
same,Pre-emergence action against LOLRI in %,Lolium rigidum (LOLRI) [7]; dosage 320 g/ha,100%
same,Pre-emergence action against MATIN in %,[8]; dosage 80 g/ha,90%
same,Pre-emergence action against MATIN in %,[8]; dosage 320 g/ha,90%
same,Pre-emergence action against PHBPU in %,[9]; dosage 320 g/ha,90%
same,Pre-emergence action against POLCO in %,[10]; dosage 80 g/ha,90%
same,Pre-emergence action against POLCO in %,[10]; dosage 320 g/ha,100%
same,Pre-emergence action against SETVI in %,Setaria viridis (SETVI) [11]; dosage 80 g/ha,100%
same,Pre-emergence action against SETVI in %,Setaria viridis (SETVI) [11]; dosage 320 g/ha,100%
same,Pre-emergence action against VERPE in %,[12]; dosage 320 g/ha,100%
same,Pre-emergence action against VIOTR in %,"Viola tricolor (VIOTR) [13]; 320 g/ha, Viola tricolor",100%
same,Pre-emergence action against VIOTR in %,Viola tricolor (VIOTR) [13]; dosage 80 g/ha,80%
same,Post-emergence action against ABUTH in %,[14]; 320 g/ha,90%
same,Post-emergence action against ALOMY in %,[15]; 80 g/ha,80%
same,Post-emergence action against ALOMY in %,[15]; 320 g/ha,90%
same,Post-emergence action against AVEFA in %,Avena fatua (AVEFA) [16]; 320 g/ha,90%
same,Post-emergence action against DIGSA in %,[17]; 80 g/ha,90%
same,Post-emergence action against DIGSA in %,[17]; 320 g/ha,90%
same,Post-emergence action against ECHCG in %,[18]; dosage 320 g/ha,80%
same,Post-emergence action against LOLRI in %,Lolium rigidum (LOLRI) [19]; dosage 320 g/ha,80%
same,Post-emergence action against PHBPU in %,[20]; dosage 80 g/ha,90%
same,Post-emergence action against PHBPU in %,[20]; dosage 320 g/ha,90%
same,Post-emergence action against POLCO in %,[21],80%
same,Post-emergence action against SETVI in %,Setaria viridis (SETVI) [22]; dosage 80 g/ha,90%
same,Post-emergence action against SETVI in %,Setaria viridis (SETVI) [22]; dosage 320 g/ha,90%
same,Post-emergence action against VERPE in %,"[23]; 320 g/ha, VERPE",80%
same,Post-emergence action against VERPE in %,[23]; dosage 80 g/ha,80%
same,Post-emergence action against VIOTR in %,Viola tricolor (VIOTR) [24]; 80 g/ha,80%
same,Post-emergence action against VIOTR in %,Viola tricolor (VIOTR) [24]; 320 g/ha,80%
CCOC(=O)COc1nn(-c2ncccc2F)c(-c2cncc(F)c2)c1C1CC1 [Example I-174],Pre-emergence action against ABUTH,[1],90%
same,Pre-emergence action against ALOMY,[2]; 80 g/ha,90%
same,Pre-emergence action against ALOMY,[2]; 320 g/ha,100%
same,Pre-emergence action against AMARE in %,[3]; 80 g/ha,100%
same,Pre-emergence action against AMARE in %,[3]; 320 g/ha,100%
same,Pre-emergence action against AVEFA in %,Avena fatua (AVEFA) [4],90%
same,Pre-emergence action against DIGSA in %,[5]; [26],100%
same,Pre-emergence action against DIGSA in %,[5]; dosage 320 g/ha,100%
same,Pre-emergence action against ECHCG in %,[6]; dosage 80 g/ha,100%
same,Pre-emergence action against ECHCG in %,[6]; dosage 320 g/ha,100%
same,Pre-emergence action against LOLRI in %,Lolium rigidum (LOLRI) [7]; dosage 80 g/ha,100%
same,Pre-emergence action against LOLRI in %,Lolium rigidum (LOLRI) [7]; dosage 320 g/ha,100%
same,Pre-emergence action against MATIN in %,[8]; dosage 80 g/ha,90%
same,Pre-emergence action against MATIN in %,[8]; dosage 320 g/ha,90%
same,Pre-emergence action against PHBPU in %,[9]; dosage 80 g/ha,90%
same,Pre-emergence action against PHBPU in %,[9]; dosage 320 g/ha,90%
same,Pre-emergence action against POLCO in %,[10]; dosage 80 g/ha,90%
same,Pre-emergence action against POLCO in %,[10]; dosage 320 g/ha,100%
same,Pre-emergence action against SETVI in %,Setaria viridis (SETVI) [11]; dosage 80 g/ha,90%
same,Pre-emergence action against SETVI in %,Setaria viridis (SETVI) [11]; dosage 320 g/ha,100%
same,Pre-emergence action against VERPE in %,[12]; dosage 80 g/ha,100%
same,Pre-emergence action against VERPE in %,[12]; dosage 320 g/ha,100%
same,Pre-emergence action against VIOTR in %,"Viola tricolor (VIOTR) [13]; 320 g/ha, Viola tricolor",100%
same,Pre-emergence action against VIOTR in %,Viola tricolor (VIOTR) [13]; dosage 80 g/ha,100%
same,Post-emergence action against ABUTH in %,[14]; 80 g/ha,80%
same,Post-emergence action against ABUTH in %,[14]; 320 g/ha,80%
same,Post-emergence action against ALOMY in %,[15]; 80 g/ha,90%
same,Post-emergence action against ALOMY in %,[15]; 320 g/ha,90%
same,Post-emergence action against AMARE in %,"[25]; 80 g/ha, visual rating about 3 weeks after treatment vs untreated controls (100% = plants have died, 0% = like control plants)",80%
same,Post-emergence action against AMARE in %,"[25]; 320 g/ha, visual rating about 3 weeks after treatment",80%
same,Post-emergence action against AVEFA in %,Avena fatua (AVEFA) [16]; 80 g/ha,80%
same,Post-emergence action against AVEFA in %,Avena fatua (AVEFA) [16]; 320 g/ha,90%
same,Post-emergence action against DIGSA in %,[17]; 80 g/ha,90%
same,Post-emergence action against DIGSA in %,[17]; 320 g/ha,90%
same,Post-emergence action against ECHCG in %,[18]; dosage 80 g/ha,80%
same,Post-emergence action against ECHCG in %,[18]; dosage 320 g/ha,80%
same,Post-emergence action against LOLRI in %,Lolium rigidum (LOLRI) [19]; dosage 80 g/ha,80%
same,Post-emergence action against LOLRI in %,Lolium rigidum (LOLRI) [19]; dosage 320 g/ha,80%
same,Post-emergence action against PHBPU in %,[20]; dosage 80 g/ha,80%
same,Post-emergence action against PHBPU in %,[20]; dosage 320 g/ha,90%
same,Post-emergence action against POLCO in %,[21],80%
same,Post-emergence action against VERPE in %,"[23]; 320 g/ha, VERPE",80%
same,Post-emergence action against VERPE in %,[23]; dosage 80 g/ha,80%
same,Post-emergence action against VIOTR in %,Viola tricolor (VIOTR) [24]; 80 g/ha,80%
same,Post-emergence action against VIOTR in %,Viola tricolor (VIOTR) [24]; 320 g/ha,80%
